The values that follow come from patent publication US20160297768A1, “NOVEL IMIDAZOLE DERIVATIVES AND THERAPEUTIC USE THEREOF” (INDUSTRY-ACA-DEMIC COORPERATION FOUNDATION, YONSEI …, priority 2013, published 2016).

One assay concerns A549 cells. As to the kind of experiment: Apoptotic activity by MTT analysis, A549 cells. The format is cell-based. Conditions: 15 μM of the compound, mean±standard deviation; for cytotoxicity at 15 µM: Homo sapiens, A549, 12 h, read-out: Apoptosis (%) A549 cells. The procedure: (§1) Lung cancer cells (A549), colorectal cancer cells (HCT116), HeLa cells, liver cancer cells (HepG2), T-cell leukemia cells (Jurkat), myeloid leukemia cells (K562), breast cancer cells (MCF-7 and MDA-MB-231) and myelocytic leukemia cells ([…]) were obtained from the American Type Culture Collection (ATCC), and cultured in 10% fetal bovine serum (FBS), 50 units/mL penicillin and 50 units/mL streptomycin-added RPMI 1640 (Invitrogen). The cells were maintained in a humidified 37° C., 5% CO2 atmosphere. The anticancer activity was detected by MTT analysis. Each type of cancer cells were plated in triplicate in a 96-well microtiter plate, and cultured at 37° C. for 24 hours. The cells were treated with each of the compounds prepared above at 37° C. for 12 hours. After the culturing of the cells, 10 μL of an MTT reagent ((3-[4,5-dimethyl-2-thiazolyl]-2,5-diphenyl-2H-tetrazoliumbromide) was added to each well, and cultured for 3.5 hours. The absorbance of each sample was detected using a UV microplate reader (SpectraMax 340PC 384, Molecular Devices) at 570 nm. The detection results were measured as a mean value. The effect of each compound on apoptosis is shown in Table 1.
(§2) The A549 and HeLa cells were treated with 15 μM of the compound for 12 hours. The apoptosis was detected using MTT (mean±standard deviation).

The next assay has as its system HeLa cells. The assay can be described thus: Apoptotic activity by MTT analysis, HeLa cells. Conditions: 15 μM of the compound, mean±standard deviation; for cytotoxicity at 15 µM: Homo sapiens, HeLa, 12 h, read-out: Apoptosis (%) HeLa cells. In kind it is cell-based. As for the experimental part:
as §1, §2

For `CNC(=O)c1ccc(Cn2c(-c3cc(C(F)(F)F)cc(C(F)(F)F)c3)nc(-c3ccc(OC)cc3)c2-c2ccc(OC)cc2)cc1` [Example 119, 4-((2-(3,5-bis(trifluoromethyl)phenyl)-4,5-bis(4-methoxyphenyl)-1H-imidazole-1-yl)methyl)-N-methylbenzamide], the cytotoxicity at 15 µM with A549 cells is 39 ± 0.76%; with HeLa cells, 90 ± 1.73%.
As for `COC(=O)c1ccc(Cn2c(-c3cc(C(F)(F)F)cc(C(F)(F)F)c3)nc(-c3ccc(OC)cc3)c2-c2ccc(OC)cc2)cc1` [Example 120, Methyl4-((2-(3,5-bis(trifluoromethyl)phenyl)-4,5-bis(4-methoxyphenyl)-1H-imidazole-1-yl)methyl)benzoate], the cytotoxicity at 15 µM amounted to 40 ± 0.49% in the assay on A549 cells and 53 ± 1.84% with HeLa cells.
With `COCCNC(=O)c1ccc(Cn2c(-c3cc(C(F)(F)F)cc(C(F)(F)F)c3)nc(-c3ccc(OC)cc3)c2-c2ccc(OC)cc2)cc1` [Example 121, 4-((2-(3,5-bis(trifluoromethyl)phenyl)-4,5-bis(4-methoxyphenyl)-1H-imidazole-1-yl)methyl)-N-(2-methoxyethyl)benzamide], the results for the cytotoxicity at 15 µM in the assay on A549 cells and with HeLa cells were 13 ± 0.38% and 19 ± 1.06%, respectively.
In the same order, the values of `COCCOC(=O)c1ccc(Cn2c(-c3cc(C(F)(F)F)cc(C(F)(F)F)c3)nc(-c3ccc(OC)cc3)c2-c2ccc(OC)cc2)cc1` [Example 122, 2-methoxyethyl 4-((2-(3,5-bis(trifluoromethyl)phenyl)-4,5-bis(4-methoxyphenyl)-1H-imidazole-1-yl)methyl)benzoate] are 58 ± 0.28% and 57 ± 0.77%.
Take `NCCOCCOCCNC(=O)c1ccc(Cn2c(-c3cc(C(F)(F)F)cc(C(F)(F)F)c3)nc(-c3ccccc3Cl)c2-c2ccccc2Cl)cc1` [Example 123, N-(2-(2-(2-aminoethoxy)ethoxy)ethyl)-4-((2-(3,5-bis(trifluoromethyl)phenyl)-4,5-bis(2-chlorophenyl)-1H-imidazole-1-yl)methyl)benzamide]: the cytotoxicity at 15 µM came out at 11 ± 0.7% with A549 cells and 8 ± 0.76% in the assay on HeLa cells.
Turning to `NCCOCCOCCNC(=O)c1ccc(Cn2c(-c3ccc(C(F)(F)F)cc3)nc(-c3ccccc3)c2-c2ccccc2)cc1` [Example 128, N-(2-(2-(2-aminoethoxy)ethoxy)ethyl)-4-((4,5-diphenyl-2-(4-(trifluoromethyl)phenyl)-1H-imidazole-1-yl)methyl)benzamide], the results for the cytotoxicity at 15 µM with A549 cells and in the assay on HeLa cells were 77 ± 0.76% and 78 ± 1.61%, respectively.
Turning to `N=C(N)c1ccc(Cn2c(-c3cc(C(F)(F)F)cc(C(F)(F)F)c3)nc(-c3ccc(Br)cc3)c2-c2ccc(Br)cc2)cc1` [Example 181, 4-((2-(3,5-bis(trifluoromethyl)phenyl)-4,5-bis(4-bromophenyl)-1H-imidazole-1-yl)methyl)benzimidamide], the cytotoxicity at 15 µM with A549 cells was determined as 93 ± 0.59%; with HeLa cells, 94 ± 1.26%.
For the compound `COc1cccc(-c2nc(-c3cc(C(F)(F)F)cc(C(F)(F)F)c3)n(Cc3ccc(C(=N)N)cc3)c2-c2cccc(OC)c2)c1` [Example 182, 4-((2-(3,5-bis(trifluoromethyl)phenyl)-4,5-bis(3-methoxyphenyl)-1H-imidazole-1-yl)methyl)benzimidamide], the results for the cytotoxicity at 15 µM in the assay on A549 cells and in the assay on HeLa cells were 49 ± 0.82% and 49 ± 0.48%, respectively.
For `Cc1ccc(-c2nc(-c3cc(C(F)(F)F)cc(C(F)(F)F)c3)n(Cc3ccc(C(=N)N)cc3)c2-c2ccc(C)cc2)cc1` [Example 183, 4-((2-(3,5-bis(trifluoromethyl)phenyl)-4,5-ditolyl-1H-imidazole-1-yl)methyl)benzimidamide], the values for the cytotoxicity at 15 µM in the assay with A549 cells and in the assay on HeLa cells were 56 ± 1.07% and 56 ± 0.38%, respectively.
Turning to `N=C(N)c1ccc(Cn2c(-c3cc(C(F)(F)F)cc(C(F)(F)F)c3)nc(-c3ccccc3)c2-c2ccccc2)cc1` [Example 184, 4-((2-(3,5-bis(trifluoromethyl)phenyl)-4,5-diphenyl-1H-imidazole-1-yl)methyl)benzimidamide], the cytotoxicity at 15 µM in the assay with A549 cells is 79 ± 0.77%; with HeLa cells, 79 ± 0.46%.
In the case of `COc1ccc(-c2nc(-c3ccc4c(c3)-c3ccccc3C4)n(Cc3ccc(C(=N)N)cc3)c2-c2ccc(OC)cc2)cc1` [Example 185, 4-((2-(9H-fluorene-3-yl)-4,5-bis(4-methoxyphenyl)-1H-imidazole-1-yl)methyl)benzimidamide], the cytotoxicity at 15 µM turned out to be 42 ± 1.15% in the assay with A549 cells and 42 ± 0.38% in the assay on HeLa cells.
For `COc1ccc(-c2nc(-c3cc(C(F)(F)F)cc(C(F)(F)F)c3)n(Cc3ccc(/C(N)=N/O)cc3)c2-c2ccc(OC)cc2)cc1` [Example 186, 4-((2-(3,5-bis(trifluoromethyl)phenyl)-4,5-bis(4-methoxyphenyl)-1H-imidazole-1-yl)methyl)-N′-hydroxybenzimidamide], the cytotoxicity at 15 µM in the assay on A549 cells is 5 ± 0.38%; with HeLa cells, 5 ± 0.27%.
Regarding `COc1ccc(-c2nc(-c3cc(C(F)(F)F)cc(C(F)(F)F)c3)n(CCOCCOCCN)c2-c2ccc(OC)cc2)cc1` [Example 187, 2-(2-(2-(2-(3,5-bis(trifluoromethyl)phenyl)-4,5-bis(4-methoxyphenyl)-1H-imidazole-1-yl)ethoxy)ethoxy)ethaneamine], the cytotoxicity at 15 µM in the assay on A549 cells amounted to 31 ± 0.29%; with HeLa cells, 12 ± 0.92%.
As for `NCCOCCOCCNC(=O)c1ccc(Cn2c(-c3cc(C(F)(F)F)cc(C(F)(F)F)c3)nc(-c3ccc(F)cc3)c2-c2ccc(F)cc2)cc1` [Example 188, N-(2-(2-(2-aminoethoxy)ethoxy)ethyl)-4-((2-(3,5-bis(trifluoromethyl)phenyl)-4,5-bis(4-fluorophenyl)-1H-imidazole-1-yl)methyl)benzamide], the cytotoxicity at 15 µM in the assay with A549 cells is 12 ± 0.24%; in the assay on HeLa cells it was 19 ± 0.65%.
For the compound `NCCOCCOCCNC(=O)c1ccc(Cn2c(-c3cc(C(F)(F)F)cc(C(F)(F)F)c3)nc(-c3ccc(Cl)cc3)c2-c2ccc(Cl)cc2)cc1` [Example 189, N-(2-(2-(2-aminoethoxy)ethoxy)ethyl)-4-((2-(3,5-bis(trifluoromethyl)phenyl)-4,5-bis(4-chlorophenyl)-1H-imidazole-1-yl)methyl)benzamide], in the assay with A549 cells (12 hours), the “Apoptosis (%) A549 cells” value is reported as 81 ± 0.45%. The “Apoptosis (%) HeLa cells” value with HeLa cells (12 hours) is recorded as 86 ± 0.64%.
Consider `COc1ccc(-c2nc(-c3cc(C(F)(F)F)cc(C(F)(F)F)c3)n(Cc3ccc(C(=O)NCCOCCN)cc3)c2-c2ccc(OC)cc2)cc1` [Example 190, N-(2-(2-aminoethoxy)ethyl)-4-((2-(3,5-bis(trifluoromethyl)phenyl)-4,5-bis(4-methoxyphenyl)-1H-imidazole-1-yl)methyl)benzamide], for which the cytotoxicity at 15 µM is 72 ± 2.88% in the assay with A549 cells and 87 ± 0.62% with HeLa cells.
As for `COc1ccc(-c2nc(-c3cc(C(F)(F)F)cc(C(F)(F)F)c3)n(Cc3ccc(C(=O)NCCCCCCN)cc3)c2-c2ccc(OC)cc2)cc1` [Example 191, N-(6-aminohexyl)-4-((2-(3,5-bis(trifluoromethyl)phenyl)-4,5-bis(4-methoxyphenyl)-1H-imidazole-1-yl)methyl)benzamide], the cytotoxicity at 15 µM in the assay on A549 cells was 78 ± 2.43%; in the assay on HeLa cells it was 94 ± 1.64%.
On the same counts, the results for `COc1ccc(-c2nc(-c3cc(C(F)(F)F)cc(C(F)(F)F)c3)n(Cc3ccc(C(=O)NCCCCCCCN)cc3)c2-c2ccc(OC)cc2)cc1` [Example 192, N-(7-aminoheptyl)-4-((2-(3,5-bis(trifluoromethyl)phenyl)-4,5-bis(4-methoxyphenyl)-1H-imidazole-1-yl)methyl)benzamide] are 80 ± 1.78% and 93 ± 0.56%.
